According to patent US20120101110A1, “Diaza-spiro[5.5]undecanes” (priority 2010, published 2012):

Key:
human orexin 2 receptors = target: T1, human orexin 2 receptors (Homo sapiens, UniProt O43614); test: Calcium accumulation in cells (FLIPR), hOx2R; format: cell-based; settings: cells expressing human orexin 2 receptor; inhibition of orexin A-induced calcium accumulation; Cheng and Prusoff correction
T1 sequence (O43614 1-444): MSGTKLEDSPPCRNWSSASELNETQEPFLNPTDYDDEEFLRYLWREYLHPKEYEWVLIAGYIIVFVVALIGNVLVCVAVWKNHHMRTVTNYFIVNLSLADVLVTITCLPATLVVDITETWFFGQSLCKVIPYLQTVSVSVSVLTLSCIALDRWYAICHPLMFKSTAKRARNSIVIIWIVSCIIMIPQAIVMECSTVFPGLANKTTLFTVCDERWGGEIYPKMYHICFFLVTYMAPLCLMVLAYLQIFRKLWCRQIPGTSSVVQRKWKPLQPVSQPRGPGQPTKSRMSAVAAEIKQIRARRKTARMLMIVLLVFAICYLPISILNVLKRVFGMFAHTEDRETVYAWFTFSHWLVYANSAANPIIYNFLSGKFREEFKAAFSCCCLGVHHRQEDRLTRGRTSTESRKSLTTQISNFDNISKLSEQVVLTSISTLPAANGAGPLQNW

human orexin 1 receptors = target: T2, human orexin 1 receptors (Homo sapiens, UniProt O43613); test: Calcium accumulation in cells (FLIPR), hOx1R; settings: for inhibition at 10 µM: read-out: FLIPR hOx1R % inhibition value
T2 sequence (O43613 1-425): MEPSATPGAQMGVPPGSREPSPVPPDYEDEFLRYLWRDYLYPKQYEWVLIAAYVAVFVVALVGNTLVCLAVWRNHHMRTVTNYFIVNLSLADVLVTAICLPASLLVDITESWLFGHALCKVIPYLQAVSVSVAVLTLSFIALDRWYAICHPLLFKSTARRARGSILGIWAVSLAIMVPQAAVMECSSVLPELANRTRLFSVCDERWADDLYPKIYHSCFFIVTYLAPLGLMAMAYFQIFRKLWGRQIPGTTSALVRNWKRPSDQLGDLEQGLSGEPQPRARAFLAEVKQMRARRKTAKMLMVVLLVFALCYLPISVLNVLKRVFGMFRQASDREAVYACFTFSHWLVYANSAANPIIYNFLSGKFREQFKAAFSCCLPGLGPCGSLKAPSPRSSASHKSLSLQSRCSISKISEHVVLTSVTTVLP
Procedure: Cells expressing human orexin 1 or human orexin 2 receptors, were seeded at 8,000 cells/well in 384 well black-walled clear bottom, poly-D-lysine coated plates. After 24 h, the medium was removed and cells were washed once with phosphate buffered saline and serum-deprived overnight in assay buffer (130 mM NaCl, 5.4 mM KCl, 1.8 mM CaCl2, 0.8 mM MgSO4, 0.9 mM NaH2PO4, 25 mM glucose, 20 mM HEPES, pH 7.4) containing bovine serum albumin (1% w/v).
On the day of the experiment, the cells seeded in black plates were treated with assay buffer containing the Ca^2+sensitive fluorescent dye Fluo-4-AM (2 μM), and probenecid (0.1 mM). After 1 h plates were washed twice with, and resuspended in, assay buffer containing probenecid (0.1 mM) using a multi plate washer. The plates were placed into a FLIPR II (Fluorometric Imaging Plate Reader, Molecular Devices, Sunnyvale, Calif., USA) and baseline fluorescence (fluorescence light units, FLU) was measured (5 measurements, 2 S each; laser excitation 488 nm at 0.6-1 W, CCD camera exposure 0.4 s) before addition of buffer alone (basal) or containing test compounds (either compound of formula I alone, agonist alone or agonist in the presence of various concentrations of compounds of formula I). Fluorescence measurements were then continued every 1 S for 120 S followed by every 4 S for 240 S.
Compounds of formula I were tested usually in a concentration range from 10^−9 M to 10^−5 M. In the second round, performed one hour later (to allow for equilibration), Orexin A was tested either in the absence (calibration curves, Orexin A agonist controls) or in the presence of compounds of formula I to determine antagonism.
Inhibition data is expressed in Table 2 as Ki [μM], converted by the Cheng and Prusoff correction (Ki=IC50/1+(L/EC50)), where IC50 is the 50% inhibition value determined in concentration response inhibition curves, EC50 is the half maximal activation concentration determined for orexin A in concentration response curves and L is the concentration of orexin A used in inhibition experiments performed in with a submaximal concentration of orexin A in the presence of up to 8 increasing concentrations of compound of formula I. Inhibition data is also expressed in Table 2 as % inhibition value measured at a concentration of 10 μM of selected compounds of formula I.

SMILES	Ki (human orexin 2 receptors)	inhibition at 10 µM (human orexin 1 receptors)	Ki (human orexin 1 receptors)
COc1ccc(N2CCC3(CCCN(Cc4c[nH]c5ccccc45)C3=O)CC2)cc1OC [Example 59, 2-((1H-indol-3-yl)methyl)-9-(3,4-dimethoxyphenyl)-2,9-diazaspiro[5.5]undecan-1-one]	1380 nM	15%	
COCc1cccc(CN2CCCC3(CCN(c4nc(C)cc(OC)n4)CC3)C2=O)c1 [Example 127, 9-(4-methoxy-6-methylpyrimidin-2-yl)-2-(3-(methoxymethyl)benzyl)-2,9-diazaspiro[5.5]undecan-1-one]	100 nM		2110 nM
Cc1cncc(N2CCC3(CCCN(Cc4c[nH]c5ccccc45)C3=O)CC2)c1 [Example 58, 2-((1H-indol-3-yl)methyl)-9-(5-methylpyridin-3-yl)-2,9-diazaspiro[5.5]undecan-1-one]	156 nM	31%	
COc1nccc(N2CCC3(CCCN(Cc4c[nH]c5ccccc45)C3=O)CC2)n1 [Example 47, 2-((1H-indol-3-yl)methyl)-9-(2-methoxypyrimidin-4-yl)-2,9-diazaspiro[5.5]undecan-1-one]	630 nM	25%	
Cc1ccnc(N2CCC3(CCCC(=O)N3Cc3cccc(-c4nc(C)no4)c3)CC2)n1 [Example 97, 1-(3-(3-methyl-1,2,4-oxadiazol-5-yl)benzyl)-9-(4-methylpyrimidin-2-yl)-1,9-diazaspiro[5.5]undecan-2-one]		15%	
CCn1cc(CN2CCCC3(CCN(c4nc(C)cc(C)n4)CC3)C2=O)c2ccccc21 [Example 54, 9-(4,6-dimethylpyrimidin-2-yl)-2-((1-ethyl-1H-indol-3-yl)methyl)-2,9-diazaspiro[5.5]undecan-1-one]	149 nM		3150 nM
Cc1ccc(N2CCC3(CCCN(Cc4c[nH]c5ccccc45)C3=O)CC2)nc1 [Example 68, 2-((1H-indol-3-yl)methyl)-9-(5-methylpyridin-2-yl)-2,9-diazaspiro[5.5]undecan-1-one]	798 nM	14%	
O=C1N(Cc2c[nH]c3ccccc23)CCCC12CCN(c1ccc(C(F)(F)F)cn1)CC2 [Example 89, 2-((1H-indol-3-yl)methyl)-9-(5-(trifluoromethyl)pyridin-2-yl)-2,9-diazaspiro[5.5]undecan-1-one]	426 nM	18%	
COc1cccc(N2CCC3(CCCN(Cc4c[nH]c5ccccc45)C3=O)CC2)c1 [Example 60, 2-((1H-indol-3-yl)methyl)-9-(3-methoxyphenyl)-2,9-diazaspiro[5.5]undecan-1-one]	228 nM		3110 nM
Cc1cnc(C)c(N2CCC3(CCCN(Cc4c[nH]c5ccccc45)C3=O)CC2)n1 [Example 86, 2-((1H-indol-3-yl)methyl)-9-(3,6-dimethylpyrazin-2-yl)-2,9-diazaspiro[5.5]undecan-1-one]	545 nM	22%	
CN(C)c1ccnc(N2CCC3(CCCN(Cc4c[nH]c5ccccc45)C3=O)CC2)n1 [Example 46, 2-((1H-indol-3-yl)methyl)-9-(4-(dimethylamino)pyrimidin-2-yl)-2,9-diazaspiro[5.5]undecan-1-one]	143 nM	25%	
N#Cc1ccc(N2CCC3(CCCN(Cc4c[nH]c5ccccc45)C3=O)CC2)nc1 [Example 69, 6-(2-((1H-indol-3-yl)methyl)-1-oxo-2,9-diazaspiro[5.5]undecan-9-yl)nicotinonitrile]	320 nM	31%	
CCc1ccnc(N2CCC3(CCCN(Cc4c[nH]c5ccccc45)C3=O)CC2)n1 [Example 79, 2-((1H-indol-3-yl)methyl)-9-(4-ethylpyrimidin-2-yl)-2,9-diazaspiro[5.5]undecan-1-one]	126 nM		708 nM
COc1cc(N2CCC3(CCCN(Cc4c[nH]c5ccccc45)C3=O)CC2)ncn1 [Example 87, 2-((1H-indol-3-yl)methyl)-9-(6-methoxypyrimidin-4-yl)-2,9-diazaspiro[5.5]undecan-1-one]	351 nM	20%	
Cc1cnc(N2CCC3(CCCN(Cc4c[nH]c5ccccc45)C3=O)CC2)cn1 [Example 72, 2-((1H-indol-3-yl)methyl)-9-(5-methylpyrazin-2-yl)-2,9 diazaspiro[5.5]undecan-1-one]	280 nM	16%	
O=C1N(Cc2c[nH]c3ccccc23)CCCC12CCN(c1ccnc(Cl)n1)CC2 [Example 48, 2-((1H-indol-3-yl)methyl)-9-(2-chloropyrimidin-4-yl)-2,9-diazaspiro[5.5]undecan-1-one]	152 nM		3150 nM
Cc1cc(N2CCC3(CCCN(Cc4c[nH]c5ccccc45)C3=O)CC2)ccn1 [Example 100, 2-((1H-indol-3-yl)methyl)-9-(2-methylpyridin-4-yl)-2,9-diazaspiro[5.5]undecan-1-one]		< 10%	
COc1cc(N2CCC3(CCCN(Cc4c[nH]c5ccccc45)C3=O)CC2)ccn1 [Example 61, 2-((1H-indol-3-yl)methyl)-9-(2-methoxypyridin-4-yl)-2,9-diazaspiro[5.5]undecan-1-one]			3840 nM
Cc1ccnc(N2CCC3(CCCC(=O)N3Cc3cccc(-n4nccn4)c3)CC2)n1 [Example 94, 1-(3-(2H-1,2,3-triazol-2-yl)benzyl)-9-(4-methylpyrimidin-2-yl)-1,9-diazaspiro[5.5]undecan-2-one]		36%	
Cc1ccnc(N2CCC3(CCCC(=O)N3Cc3cc(C#N)ccc3F)CC2)n1 [Example 101, 4-fluoro-3-((9-(4-methylpyrimidin-2-yl)-2-oxo-1,9-diazaspiro[5.5]undecan-1-yl)methyl)benzonitrile]		< 10%	
Cc1nnc(N2CCC3(CCCN(Cc4c[nH]c5ccccc45)C3=O)CC2)o1 [Example 17, 2-((1H-indol-3-yl)methyl)-9-(5-methyl-1,3,4-oxadiazol-2-yl)-2,9-diazaspiro[5.5]undecan-1-one]		12%	
Cc1ccnc(N2CCC3(CCCC(=O)N3Cc3cccc(N4CCCC4)n3)CC2)n1 [Example 98, 9-(4-methylpyrimidin-2-yl)-1-((6-(pyrrolidin-1-yl)pyridin-2-yl)methyl)-1,9-diazaspiro[5.5]undecan-2-one]		< 10%	
N#Cc1cccc(N2CCC3(CCCN(Cc4ccccc4-n4nccn4)C3=O)CC2)n1 [Example 26, 6-(2-(2-(2H-1,2,3-triazol-2-yl)benzyl)-1-oxo-2,9-diazaspiro[5.5]undecan-9-yl)picolinonitrile]		< 10%	
Cc1ccnc(N2CCC3(CCCC(=O)N3Cc3ccc(-c4ncccn4)cc3)CC2)n1 [Example 90, 9-(4-methylpyrimidin-2-yl)-1-(4-(pyrimidin-2-yl)benzyl)-1,9-diazaspiro[5.5]undecan-2-one]		< 10%	
O=C1N(Cc2c[nH]c3ccccc23)CCCC12CCN(c1cccc(O)n1)CC2 [Example 84, 2-((1H-indol-3-yl)methyl)-9-(6-hydroxypyridin-2-yl)-2,9-diazaspiro[5.5]undecan-1-one]		24%	
Cc1ccnc(N2CCC3(CCCC(=O)N3Cc3nnc(-c4ccccc4)o3)CC2)n1 [Example 95, 9-(4-methylpyrimidin-2-yl)-1-((5-phenyl-1,3,4-oxadiazol-2-yl)methyl)-1,9-diazaspiro[5.5]undecan-2-one]		10%	
